# According to patent publication US20230227442A1, “HETEROALKYL DIHYDROQUINOLINE SULFONAMIDE COMPOUNDS” (AMGEN INC., priority 2020, published 2023):
# Assays:
# [1] = target: T1, Human Nav1.7 (Homo sapiens, UniProt Q15858); assay: Ionworks Barracuda (IWB) automated patch clamp assay; assay type: cell-based; settings: population patch clamp, HEK cells, 4 min compound incubation at -20 mV; read-out: hNaV1.7 IWB-U IC50
# T1 construct: expressed in transfected cells; host or cells: Spiking HEK cells (without Kir2.1 transfection)
# T1 sequence (Q15858 whole entry): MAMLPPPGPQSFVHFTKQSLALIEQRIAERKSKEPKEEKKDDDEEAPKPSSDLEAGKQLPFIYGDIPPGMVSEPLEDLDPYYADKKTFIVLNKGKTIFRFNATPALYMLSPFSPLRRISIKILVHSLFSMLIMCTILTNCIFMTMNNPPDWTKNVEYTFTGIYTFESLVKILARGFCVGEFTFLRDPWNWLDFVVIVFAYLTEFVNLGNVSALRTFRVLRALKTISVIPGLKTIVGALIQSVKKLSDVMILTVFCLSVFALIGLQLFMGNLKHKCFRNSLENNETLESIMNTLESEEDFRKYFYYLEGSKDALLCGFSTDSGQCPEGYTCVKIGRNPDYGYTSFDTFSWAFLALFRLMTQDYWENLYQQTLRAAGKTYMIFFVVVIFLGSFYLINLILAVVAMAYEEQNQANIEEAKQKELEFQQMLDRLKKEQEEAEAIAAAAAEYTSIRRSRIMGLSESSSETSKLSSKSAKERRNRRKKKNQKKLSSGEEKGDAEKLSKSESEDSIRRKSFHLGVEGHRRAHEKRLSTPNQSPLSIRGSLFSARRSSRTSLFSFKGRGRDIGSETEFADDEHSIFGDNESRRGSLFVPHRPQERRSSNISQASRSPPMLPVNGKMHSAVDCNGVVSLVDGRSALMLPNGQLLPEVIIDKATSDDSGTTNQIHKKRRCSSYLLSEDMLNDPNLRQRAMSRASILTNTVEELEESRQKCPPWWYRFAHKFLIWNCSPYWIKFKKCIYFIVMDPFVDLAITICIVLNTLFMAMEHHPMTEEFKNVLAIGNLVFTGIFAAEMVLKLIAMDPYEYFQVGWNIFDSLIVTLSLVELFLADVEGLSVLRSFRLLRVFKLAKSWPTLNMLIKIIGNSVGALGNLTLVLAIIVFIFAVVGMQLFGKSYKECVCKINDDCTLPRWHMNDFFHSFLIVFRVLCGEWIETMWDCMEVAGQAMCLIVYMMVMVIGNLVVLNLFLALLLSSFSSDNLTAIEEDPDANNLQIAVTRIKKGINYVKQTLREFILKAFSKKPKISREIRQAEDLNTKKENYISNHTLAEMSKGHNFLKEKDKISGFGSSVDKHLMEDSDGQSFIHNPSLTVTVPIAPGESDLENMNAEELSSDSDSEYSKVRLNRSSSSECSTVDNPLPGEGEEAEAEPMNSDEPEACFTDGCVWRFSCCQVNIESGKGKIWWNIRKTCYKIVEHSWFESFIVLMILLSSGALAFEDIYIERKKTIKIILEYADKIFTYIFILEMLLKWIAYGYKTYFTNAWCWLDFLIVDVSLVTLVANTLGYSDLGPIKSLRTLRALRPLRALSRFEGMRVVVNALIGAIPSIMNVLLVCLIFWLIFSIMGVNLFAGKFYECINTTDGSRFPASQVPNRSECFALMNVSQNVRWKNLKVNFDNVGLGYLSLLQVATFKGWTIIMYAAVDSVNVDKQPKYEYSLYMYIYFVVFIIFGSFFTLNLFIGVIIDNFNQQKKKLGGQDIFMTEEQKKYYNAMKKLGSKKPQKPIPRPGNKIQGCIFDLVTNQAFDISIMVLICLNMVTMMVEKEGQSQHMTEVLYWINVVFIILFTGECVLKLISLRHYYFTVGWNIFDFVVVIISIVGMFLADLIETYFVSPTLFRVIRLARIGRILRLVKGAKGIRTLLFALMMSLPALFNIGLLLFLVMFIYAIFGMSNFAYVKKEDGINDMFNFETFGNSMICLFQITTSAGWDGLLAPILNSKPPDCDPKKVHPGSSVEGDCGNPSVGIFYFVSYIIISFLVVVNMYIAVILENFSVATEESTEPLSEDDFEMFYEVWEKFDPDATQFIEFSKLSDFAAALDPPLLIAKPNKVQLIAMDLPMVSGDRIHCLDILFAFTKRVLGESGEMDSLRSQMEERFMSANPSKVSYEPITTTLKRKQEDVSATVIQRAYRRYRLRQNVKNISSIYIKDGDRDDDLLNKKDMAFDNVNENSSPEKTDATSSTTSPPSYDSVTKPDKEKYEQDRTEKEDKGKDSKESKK
# Procedure: Ionworks Barracuda Automated Patch Clamp Assay (Same Protocol for Both Human and Mouse)
# Human Nav1.7 currents were recorded in population patch-clamp mode with the IWB automated electrophysiology system (Molecular Devices, LLC, Sunnyvale, Calif.). Spiking HEK cells (without Kir2.1 transfection) were cultured and prepared for recordings as previously described for IonWorks Quattro testing^1. The external solution consisted of the following (in mM): NaCl 140, KCl 5, CaCl2 2, MgCl2 1, HEPES 10, and glucose 11, pH 7.4, with N-methyl-D-glucamine at 320 mOsmol. The internal solution consisted of the following (in mM): KCl 70, KF 70, MgCl2 0.25, HEDTA 5, and HEPES 10, pH 7.25, with Nmethyl-D-glucamine, 300 mOsmol. From a holding potential of −110 mV, currents were elicited by a train of 26 depolarizations of 150 ms duration to −20 mV at a frequency of 5 Hz. Cells were then clamped to −20 mV for a period of 4 minutes in the presence of a single concentration of test compound. Following this compound incubation period, cells were clamped to −110 mV for three seconds to recover unbound channels and put through the same 26 pulse voltage protocol as above. Peak inward current during the 26th pulse to −20 mV in the presence of compound was divided by the peak inward current evoked by the 26th pulse to −20 mV in the absence of compound to determine percent inhibition. Concentration-response curves of percent inhibition as a function of concentration were generated to calculate IC50 values as described in Kornecook, T. J.; Yin, R.; Altmann, S.; et al. Pharmacologic Characterization of AMG8379, a Potent and Selective Small Molecule Sulfonamide Antagonist of the Voltage-Gated Sodium Channel NaV1. 7. J. Pharmacol. Exp. Ther. 2017, 362, 146-160.
# [2] = test system: CYP3A4; assay: Human CYP 3A4 induction assay (mRNA, cryopreserved human hepatocytes); assay type: in vitro ADME; settings: 72 hours, percent of control (POC); for CYP3A4 mRNA Induct Hu 2 uM POC: 2 uM test compound; for CYP3A4 mRNA Induct Hu 10 uM POC: 10 uM test compound
# Procedure: Human CYP 3A4 Induction Assay
# Cryopreserved human hepatocytes were seeded in 96-well collagen coated plates at 70,000 cells per well in hepatocyte plating media (HPM, final concentrations: lx Dulbecco's Modified Eagle's Medium, 0.1 μM dexamethasone, 10% fetal bovine serum, lx ITS, 1×PSG) followed by incubation at 37° C. under 5% CO2 and 90% relative humidity for 2 days to allow hepatocytes to form a confluent layer. On Day 3, hepatocytes were treated with either test compound or rifampin (20 μM, positive control for CYP3A induction) prepared in hepatocyte incubation media ((HIM, final concentrations: 1× William's Medium E, 0.1 μM dexamethasone, 1×ITS, 1×PSG). Treatment was performed for 72 hours with either 2 concentrations (2 μM or 10 μM) or a range of concentrations (0.001 μM to 100 μM) of the test compound to obtain full dose-response curve. Fresh media containing the relevant concentrations of the test compound was replaced every day until the samples were processed. After 72 hours of incubation, samples were processed for mRNA analysis using bDNA technology using manufacturer's instructions (Affymetrix, Fremont, Calif.). Cell viability was tested at the end of the experiment using MTT assay kit (Roche Diagnostics, Basel, Switzerland). Data was analyzed and presented as percent of control (POC) and Emax and EC50 obtained when appropriate according to guidance from Center for Drug Evaluation and Research (CDER), 2006, Guidance for Industry, Drug Interaction Studies—Study Design, Data Analysis, and Implications for Dosing and Labeling.
# Cryopreserved human hepatocytes were seeded in 96-well collagen coated plates at 70,000 cells per well in hepatocyte plating media (HPM, final concentrations: lx Dulbecco's Modified Eagle's Medium, 0.1 μM dexamethasone, 10% fetal bovine serum, lx ITS, 1×PSG) followed by incubation at 37° C. under 5% CO2 and 90% relative humidity for 2 days to allow hepatocytes to form a confluent layer. On Day 3, hepatocytes were treated with either test compound or rifampin (20 μM, positive control for CYP3A induction) prepared in hepatocyte incubation media ((HIM, final concentrations: 1× William's Medium E, 0.1 μM dexamethasone, 1×ITS, 1×PSG). Treatment was performed for 72 hours with either 2 concentrations (2 μM or 10 μM) or a range of concentrations (0.001 μM to 100 μM) of the test compound to obtain full dose-response curve. Fresh media containing the relevant concentrations of the test compound was replaced every day until the samples were processed. After 72 hours of incubation, samples were processed for mRNA analysis using bDNA technology using manufacturer's instructions (Affymetrix, Fremont, Calif.). Cell viability was tested at the end of the experiment using MTT assay kit (Roche Diagnostics, Basel, Switzerland). Data was analyzed and presented as percent of control (POC) and Emax and EC50 obtained when appropriate, as described in Halladay, J. et al, 2012, An “all-inclusive” 96-well cytochrome P450 induction method: Measuring enzyme activity, mRNA levels, protein levels, and cytotoxicity from one well using cryopreserved human hepatocytes, Pharmacological and Toxicological Methods, 66:270-275.
SMILES,IC50 [1],CYP3A4 mRNA Induct Hu 2 uM POC [2],CYP3A4 mRNA Induct Hu 10 uM POC [2]
"COc1cc(SC(F)(F)F)c(C)cc1-n1c(=O)ccc2cc(S(=O)(=O)Nc3ccon3)ccc21 [Example 12, P-N-(isoxazol-3-yl)-1-(2-methoxy-5-methyl-4-((trifluoromethyl)thio)phenyl)-2-oxo-1,2-dihydroquinoline-6-sulfonamide]",0.014 µM,20.2%,61.2%
"COc1cc(O[C@H](C)C(F)(F)F)c(F)cc1-n1c(=O)ccc2cc(S(=O)(=O)Nc3ncccn3)ccc21 [Example 13, P-(R)-1-(5-fluoro-2-methoxy-4-((1,1,1-trifluoropropan-2-yl)oxy)phenyl)-2-oxo-N-(pyrimidin-2-yl)-1,2-dihydroquinoline-6-sulfonamide]",0.021 µM,7.0%,35.3%
"COc1cc(SC(F)(F)F)c(Cl)cc1-n1c(=O)ccc2cc(S(=O)(=O)Nc3ccon3)ccc21 (atropisomer, axis not shown; (P)) [Example 2, (P)-1-(5-chloro-2-methoxy-4-((trifluoromethyl)thio)phenyl)-N-(isoxazol-3-yl)-2-oxo-1,2-dihydroquinoline-6-sulfonamide]",0.008 µM,,
COc1cc(OCC(F)(F)F)c(F)cc1-n1c(=O)ccc2cc(S(=O)(=O)Nc3ccon3)c(F)cc21 [Example 14],0.023 µM,3.6%,21.4%
"COc1cc(OC(F)(F)F)c(Cl)cc1-n1c(=O)ccc2cc(S(=O)(=O)Nc3ccon3)ccc21 (atropisomer, axis not shown; (P)) [Example 3, (P)-1-(5-chloro-2-methoxy-4-(trifluoromethoxy)phenyl)-N-(isoxazol-3-yl)-2-oxo-1,2-dihydroquinoline-6-sulfonamide]",0.009 µM,10.1%,35.4%
"COc1nc(SC(F)(F)F)c(F)cc1-n1c(=O)ccc2cc(S(=O)(=O)Nc3ccon3)ccc21 (atropisomer, axis not shown; (P)) [Example 26, (P)-1-(5-fluoro-2-methoxy-6-((trifluoromethyl)thio)pyridin-3-yl)-N-(isoxazol-3-yl)-2-oxo-1,2-dihydroquinoline-6-sulfonamide]",0.185 µM,5.7%,25.6%
"COc1cc(O[C@@H](C)C(F)(F)F)c(F)cc1-n1c(=O)ccc2cc(S(=O)(=O)Nc3ncccn3)ccc21 (atropisomer, axis not shown; (P)) [Example 24, (P)-(S)-1-(5-fluoro-2-methoxy-4-((1,1,1-trifluoropropan-2-yl)oxy)phenyl)-2-oxo-N-(pyrimidin-2-yl)-1,2-dihydroquinoline-6-sulfonamide]",0.068 µM,0.8%,1.2%
"COc1cc(SC(F)(F)F)c(F)cc1-n1c(=O)ccc2cc(S(=O)(=O)Nc3ncccn3)c(F)cc21 (atropisomer, axis not shown; (P)) [Example 19, (P)-7-fluoro-1-(5-fluoro-2-methoxy-4-((trifluoromethyl)thio)phenyl)-2-oxo-N-(pyrimidin-2-yl)-1,2-dihydroquinoline-6-sulfonamide]",0.029 µM,17.4%,49.2%
"COc1cc(OCCC(F)(F)F)c(F)cc1-n1c(=O)ccc2cc(S(=O)(=O)Nc3ccon3)c(F)cc21 (atropisomer, axis not shown; (P)) [Example 22, (P)-7-fluoro-1-(5-fluoro-2-methoxy-4-(3,3,3-trifluoropropoxy)phenyl)-N-(isoxazol-3-yl)-2-oxo-1,2-dihydroquinoline-6-sulfonamide]",0.034 µM,14.8%,41.5%

# Next, values leading:
IC50 [1],CYP3A4 mRNA Induct Hu 2 uM POC [2],CYP3A4 mRNA Induct Hu 10 uM POC [2],SMILES
0.021 µM,10.8%,35.7%,"COc1cc(OCC(F)(F)F)c(F)cc1-n1c(=O)ccc2cc(S(=O)(=O)Nc3ccon3)ccc21 (atropisomer, axis not shown; (P)) [Example 10, (P)-1-(5-fluoro-2-methoxy-4-(2,2,2-trifluoroethoxy)phenyl)-N-(isoxazol-3-yl)-2-oxo-1,2-dihydroquinoline-6-sulfonamide]"
0.007 µM,1.7%,,"COc1cc(COC(F)(F)F)c(Cl)cc1-n1c(=O)ccc2cc(S(=O)(=O)Nc3ccon3)ccc21 (atropisomer, axis not shown; (P)) [Example 1, (P)-1-(5-chloro-2-methoxy-4-((trifluoromethoxy)methyl)phenyl)-N-(isoxazol-3-yl)-2-oxo-1,2-dihydroquinoline-6-sulfonamide]"
0.023 µM,7.7%,20.2%,"COc1cc(OCC(F)(F)F)c(Cl)cc1-n1c(=O)ccc2cc(S(=O)(=O)Nc3ccon3)ccc21 (atropisomer, axis not shown; (P)) [Example 15, (P)-1-(5-chloro-2-methoxy-4-(2,2,2-trifluoroethoxy)phenyl)-N-(isoxazol-3-yl)-2-oxo-1,2-dihydroquinoline-6-sulfonamide]"
0.014 µM,41.9%,76.1%,"COc1cc(CCC(F)(F)F)c(F)cc1-n1c(=O)ccc2cc(S(=O)(=O)Nc3ccon3)ccc21 (atropisomer, axis not shown; (P)) [Compound A, (P)-1-(5-fluoro-2-methoxy-4-(3,3,3-trifluoropropyl)phenyl)-N-(1,2-oxazol-3-yl)-2-oxo-1,2-dihydro-6-quinolinesulfonamide, reference compound]"
0.03 µM,10.8%,29.6%,"COc1cc(OCCC(F)(F)F)c(F)cc1-n1c(=O)ccc2cc(S(=O)(=O)Nc3ccon3)ccc21 (atropisomer, axis not shown; (P)) [Example 20, (P)-1-(5-fluoro-2-methoxy-4-(3,3,3-trifluoropropoxy)phenyl)-N-(isoxazol-3-yl)-2-oxo-1,2-dihydroquinoline-6-sulfonamide]"
0.011 µM,3.4%,7.5%,"COc1cc(SCC(F)(F)F)c(F)cc1-n1c(=O)ccc2cc(S(=O)(=O)Nc3ccon3)ccc21 (atropisomer, axis not shown; (P)) [Example 5, (P)-1-(5-fluoro-2-methoxy-4-((2,2,2-trifluoroethyl)thio)phenyl)-N-(isoxazol-3-yl)-2-oxo-1,2-dihydroquinoline-6-sulfonamide]"
